Test [1] has as its target T1, human amylin receptor (calcitonin receptor co-expressed with receptor activity modifying protein, RAMP3) (hAMYR3) (Homo sapiens, UniProt O60896+P30988).
T1 construct: expressed in transfected cells
T1 sequence (P30988 25-474): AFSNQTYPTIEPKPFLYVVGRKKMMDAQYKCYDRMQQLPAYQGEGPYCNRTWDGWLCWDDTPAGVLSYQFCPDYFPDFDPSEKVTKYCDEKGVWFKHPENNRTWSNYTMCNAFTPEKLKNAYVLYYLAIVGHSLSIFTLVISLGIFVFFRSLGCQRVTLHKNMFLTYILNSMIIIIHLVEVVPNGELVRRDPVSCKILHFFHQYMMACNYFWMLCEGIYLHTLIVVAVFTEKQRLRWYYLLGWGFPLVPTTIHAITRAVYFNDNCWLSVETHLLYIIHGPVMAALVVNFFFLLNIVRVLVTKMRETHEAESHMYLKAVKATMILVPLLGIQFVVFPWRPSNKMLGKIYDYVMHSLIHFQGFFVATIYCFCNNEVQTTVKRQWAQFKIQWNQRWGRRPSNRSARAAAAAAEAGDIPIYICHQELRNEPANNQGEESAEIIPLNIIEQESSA
T1 sequence (O60896 24-148 partner): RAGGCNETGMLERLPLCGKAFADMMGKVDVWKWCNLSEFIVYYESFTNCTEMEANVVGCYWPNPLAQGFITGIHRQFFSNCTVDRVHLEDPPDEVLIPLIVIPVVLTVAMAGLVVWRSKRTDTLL
Put plainly: cAMP production in 1321N1 cells with stable recombinant expression of human amylin receptor (hAMYR3). The format is cell-based. The note with it: for Ratio (selectivity hAMYR vs hCTR, ratio of EC50 values at the two receptors): EC50 hCTR / EC50 hAMYR3; for EC50: cAMP, 1321N1 cells, assay buffer with 0.1% BSA, read-out: EC50 (pM) hAMYR3. A digest of the protocol: (§1)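 Receptor-expressing cells (human receptors in 1321N1, rat receptors in HEK) incubated 30 min at room temperature with peptide in HBSS/HEPES pH 7.4, 0.1% BSA, 0.5 mM IBMX. cAMP read by HTRF; EC50 from 4-parameter fit as % of maximal amylin or calcitonin response.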
(In general: Changes in cAMP serve as a functional read-out for many G protein-coupled receptors.)

The target in test [2] is T2, human calcitonin receptor (hCTR) (Homo sapiens, UniProt P30988).
T2 construct: expressed in transfected cells
T2 sequence (P30988 25-474): T1 sequence (P30988 25-474)
Put plainly: cAMP production in 1321N1 cells with stable recombinant expression of human calcitonin receptor (hCTR). The class given is cell-based. The note with it: cAMP, 1321N1 cells, assay buffer with 0.1% BSA; read-out: EC50 (pM) hCTR. Summed up:
as §1

Numbered stars: 1 amine (or outer) side, 2 acyl side, 3 side chain; on linkers, the order of the positions; unused ones are H or OH. Bridge positions count the residues as written; N and C are the ends. Square brackets hold non-standard residues; d marks the D form. Side chains are listed from the residue outwards. Peptide text beside a SMILES is read from it. * marks the point of attachment. C18 diacid = O=C(O)CCCCCCCCCCCCCCCCC(=O)*; γGlu = O=C(O)[C@H](CCC(=O)[*:2])N[*:1]; Aib = CC(C)(N)C(=O)O

The term EC50 denotes the concentration at which the effect is half-maximal. As for `CC[C@H](C)[C@H](NC(=O)[C@@H]1CCCN1C(=O)CNC(=O)[C@H](Cc1ccccc1)NC(=O)[C@H](CC(N)=O)NC(=O)C(C)(C)NC(=O)[C@H](CO)NC(=O)[C@H](CO)NC(=O)[C@H](Cc1c[nH]cn1)NC(=O)[C@H](CCCNC(=N)N)NC(=O)[C@H](CC(C)C)NC(=O)[C@H](Cc1ccccc1)NC(=O)[C@H](CC(N)=O)NC(=O)[C@H](C)NC(=O)[C@H](CC(C)C)NC(=O)[C@H](CCCNC(=N)N)NC(=O)[C@H](CCC(N)=O)NC(=O)[C@@H](NC(=O)[C@H](C)NC(=O)[C@@H]1CSSC[C@H](NC(=O)[C@@H](N)CCCCNC(=O)CC[C@H](NC(=O)CC[C@H](NC(=O)CCCCCCCCCCCCCCCCC(=O)O)C(=O)O)C(=O)O)C(=O)N[C@@H](CC(N)=O)C(=O)N[C@@H]([C@@H](C)O)C(=O)N[C@@H](C)C(=O)N[C@@H]([C@@H](C)O)C(=O)N1)[C@@H](C)O)C(=O)N[C@@H](CC(C)C)C(=O)N1CCC[C@H]1C(=O)N1CCC[C@H]1C(=O)N[C@H](C(=O)N[C@@H](CC(N)=O)C(=O)N[C@H](C(=O)NCC(=O)N[C@@H](CO)C(=O)N[C@@H](CC(N)=O)C(=O)N[C@H](C(=O)N[C@@H](Cc1ccc(O)cc1)C(N)=O)[C@@H](C)O)C(C)C)[C@@H](C)O` [Peptide 75, K(γE-γE-C18diacid)[CNTATC]ATQRLANFLRHSS(Aib)NFGPILPPTNVGSNTY-amide] (H-K([γGlu-γGlu-C18 diacid])CNTATCATQRLANFLRHSS[Aib]NFGPILPPTNVGSNTY-NH2; disulfide 2-7), in test [1], the “Ratio (selectivity hAMYR vs hCTR, ratio of EC50 values at the two receptors)” value stood at 99 and the EC50 was found to be 161 pM. The concentration giving a half-maximal response (EC50) in test [2] is 16000 pM.

Take `CC[C@H](C)[C@H](NC(=O)[C@@H]1CCCN1C(=O)CNC(=O)[C@H](Cc1ccccc1)NC(=O)[C@H](CC(N)=O)NC(=O)C(C)(C)NC(=O)[C@H](CO)NC(=O)[C@H](CO)NC(=O)[C@H](Cc1c[nH]cn1)NC(=O)[C@H](CCCNC(=N)N)NC(=O)[C@H](CC(C)C)NC(=O)[C@H](Cc1ccccc1)NC(=O)[C@H](CC(N)=O)NC(=O)[C@H](C)NC(=O)[C@H](CC(C)C)NC(=O)[C@H](CCCNC(=N)N)NC(=O)[C@H](CCC(N)=O)NC(=O)[C@@H](NC(=O)[C@H](C)NC(=O)[C@@H]1CSSC[C@H](NC(=O)[C@@H](N)CCCCNC(=O)CC[C@H](NC(=O)CCCCCCCCCCCCCCCCC(=O)O)C(=O)O)C(=O)N[C@@H](CC(N)=O)C(=O)N[C@@H]([C@@H](C)O)C(=O)N[C@@H](C)C(=O)N[C@@H]([C@@H](C)O)C(=O)N1)[C@@H](C)O)C(=O)N[C@@H](CC(C)C)C(=O)N1CCC[C@H]1C(=O)N1CCC[C@H]1C(=O)N[C@H](C(=O)N[C@@H](CCCNC(=N)N)C(=O)N[C@H](C(=O)NCC(=O)N[C@@H](CO)C(=O)N[C@@H](CC(N)=O)C(=O)N[C@H](C(=O)N[C@@H](Cc1ccc(O)cc1)C(N)=O)[C@@H](C)O)C(C)C)[C@@H](C)O` [Peptide 76, K(γE-C18diacid)[CNTATC]ATQRLANFLRHSS(Aib)NFGPILPPTRVGSNTY-amide] (H-K([γGlu-C18 diacid])CNTATCATQRLANFLRHSS[Aib]NFGPILPPTRVGSNTY-NH2; disulfide 2-7; N-terminus assumed): in test [1], the “Ratio (selectivity hAMYR vs hCTR, ratio of EC50 values at the two receptors)” value is 107 and the EC50 was 209 pM. The EC50 in test [2] was 22300 pM.

In the case of `CC[C@H](C)[C@H](NC(=O)[C@@H]1CCCN1C(=O)CNC(=O)[C@H](Cc1ccccc1)NC(=O)[C@H](CC(N)=O)NC(=O)C(C)(C)NC(=O)[C@H](CO)NC(=O)[C@H](CO)NC(=O)[C@H](Cc1c[nH]cn1)NC(=O)[C@H](CCCNC(=N)N)NC(=O)[C@H](CC(C)C)NC(=O)[C@H](Cc1ccccc1)NC(=O)[C@H](CC(N)=O)NC(=O)[C@H](C)NC(=O)[C@H](CC(C)C)NC(=O)[C@H](CCCNC(=N)N)NC(=O)[C@H](CCC(N)=O)NC(=O)[C@@H](NC(=O)[C@H](C)NC(=O)[C@@H]1CSSC[C@H](NC(=O)[C@@H](N)CCCCNC(=O)CC[C@H](NC(=O)CC[C@H](NC(=O)CCCCCCCCCCCCCCCCC(=O)O)C(=O)O)C(=O)O)C(=O)N[C@@H](CC(N)=O)C(=O)N[C@@H]([C@@H](C)O)C(=O)N[C@@H](C)C(=O)N[C@@H]([C@@H](C)O)C(=O)N1)[C@@H](C)O)C(=O)N[C@@H](CC(C)C)C(=O)N1CCC[C@H]1C(=O)N1CCC[C@H]1C(=O)N[C@H](C(=O)N[C@@H](CCCNC(=N)N)C(=O)N[C@H](C(=O)NCC(=O)N[C@@H](CO)C(=O)N[C@@H](CC(N)=O)C(=O)N[C@H](C(=O)N[C@@H](Cc1ccc(O)cc1)C(N)=O)[C@@H](C)O)C(C)C)[C@@H](C)O` [Peptide 77, K(γE-γE-C18diacid)[CNTATC]ATQRLANFLRHSS(Aib)NFGPILPPTRVGSNTY-amide] (H-K([γGlu-γGlu-C18 diacid])CNTATCATQRLANFLRHSS[Aib]NFGPILPPTRVGSNTY-NH2; disulfide 2-7; N-terminus assumed), in test [1], the “Ratio (selectivity hAMYR vs hCTR, ratio of EC50 values at the two receptors)” value is 11 and the EC50 was determined as 231 pM. Further, the EC50 in test [2] amounted to 2520 pM.

As for `CC(C)C[C@H](NC(=O)[C@H](CCCNC(=N)N)NC(=O)[C@H](CCC(N)=O)NC(=O)[C@@H](NC(=O)[C@H](C)NC(=O)[C@@H]1CSSC[C@H](NC(=O)[C@H](CCCCN)NC(=O)[C@@H](N)CCCCNC(=O)CC[C@H](NC(=O)CCCCCCCCCCCCCCCCC(=O)O)C(=O)O)C(=O)N[C@@H](CC(N)=O)C(=O)N[C@@H]([C@@H](C)O)C(=O)N[C@@H](C)C(=O)N[C@@H]([C@@H](C)O)C(=O)N1)[C@@H](C)O)C(=O)N[C@@H](C)C(=O)N[C@@H](CC(N)=O)C(=O)N[C@@H](Cc1ccccc1)C(=O)N[C@@H](CC(C)C)C(=O)N[C@H](C(=O)N[C@@H](Cc1c[nH]cn1)C(=O)N[C@@H](CO)C(=O)N[C@@H](CO)C(=O)NC(C)(C)C(=O)N[C@@H](CC(N)=O)C(=O)N[C@@H](Cc1ccccc1)C(=O)NCC(=O)N1CCC[C@H]1C(=O)NC(C)(C)C(=O)N[C@@H](CC(C)C)C(=O)N1CCC[C@H]1C(=O)N1CCC[C@H]1C(=O)N[C@H](C(=O)N[C@@H](CC(N)=O)C(=O)N[C@H](C(=O)NCC(=O)N[C@@H](CO)C(=O)N[C@@H](CC(N)=O)C(=O)N[C@H](C(=O)N[C@@H](Cc1ccc(O)cc1)C(N)=O)[C@@H](C)O)C(C)C)[C@@H](C)O)C(C)C` [Peptide 78, K(γE-C18diacid)K[CNTATC]ATQRLANFLVHSS(Aib)NFGP(Aib)LPPTNVGSNTY-amide] (H-K([γGlu-C18 diacid])KCNTATCATQRLANFLVHSS[Aib]NFGP[Aib]LPPTNVGSNTY-NH2; disulfide 3-8; N-terminus assumed), in test [1], the “Ratio (selectivity hAMYR vs hCTR, ratio of EC50 values at the two receptors)” value was 11 and the EC50 came out at 288 pM. For the same compound, the EC50 in test [2] amounted to 3150 pM.

As to `CC[C@H](C)[C@H](NC(=O)[C@@H]1CCCN1C(=O)CNC(=O)[C@H](Cc1ccccc1)NC(=O)[C@H](CC(N)=O)NC(=O)C(C)(C)NC(=O)[C@H](CO)NC(=O)[C@H](CO)NC(=O)[C@H](Cc1c[nH]cn1)NC(=O)[C@@H](NC(=O)[C@H](CC(C)C)NC(=O)[C@H](Cc1ccccc1)NC(=O)[C@H](CC(N)=O)NC(=O)[C@H](C)NC(=O)[C@H](CC(C)C)NC(=O)[C@H](CCCNC(=N)N)NC(=O)[C@H](CCC(N)=O)NC(=O)[C@@H](NC(=O)[C@H](C)NC(=O)[C@@H]1CSSC[C@H](NC(=O)[C@H](CCCCN)NC(=O)[C@@H](N)CCCCNC(=O)CC[C@H](NC(=O)CCCCCCCCCCCCCCCCC(=O)O)C(=O)O)C(=O)N[C@@H](CC(N)=O)C(=O)N[C@@H]([C@@H](C)O)C(=O)N[C@@H](C)C(=O)N[C@@H]([C@@H](C)O)C(=O)N1)[C@@H](C)O)C(C)C)C(=O)NC(C)(C)C(=O)N1CCC[C@H]1C(=O)N1CCC[C@H]1C(=O)N[C@H](C(=O)N[C@@H](CC(N)=O)C(=O)N[C@H](C(=O)NCC(=O)N[C@@H](CO)C(=O)N[C@@H](CC(N)=O)C(=O)N[C@H](C(=O)N[C@@H](Cc1ccc(O)cc1)C(N)=O)[C@@H](C)O)C(C)C)[C@@H](C)O` [Peptide 79, K(γE-C18diacid)K[CNTATC]ATQRLANFLVHSS(Aib)NFGPI(Aib)PPTNVGSNTY-amide] (H-K([γGlu-C18 diacid])KCNTATCATQRLANFLVHSS[Aib]NFGPI[Aib]PPTNVGSNTY-NH2; disulfide 3-8), in test [1], the “Ratio (selectivity hAMYR vs hCTR, ratio of EC50 values at the two receptors)” value was 7 and the EC50 is 659 pM. In test [2], the EC50 came to 4800 pM.

The values are drawn from patent publication US20240067693A1, “POLYPEPTIDES AND USES THEREOF” (MEDIMMUNE LIMITED, priority 2020, published 2024).
